According to US10376476B2, “Panicein compounds, compositions and uses thereof” (CENTRE NATIONAL DE LA RECHERCHE SCIENTIFIQUE, priority 2014, dated 2019):

Columns and labels:
Format in all cases: cell-based, human
melanoma cells = assay: Apoptosis by AnnexinV and DAPI co-staining
Protocol: Cells were sampled after 24 h treatment with DMSO, paniceins and/or dxr, and apoptosis determined via AnnexinV and DAPI co-staining. Cells in early apoptosis are AnnexinV positive and DAPI negative, and cells in late apoptosis are AnnexinV and DAPI double positive. Histograms represent the mean percentage (+/−SEM) of cells in late apoptosis from three independent experiments and were analyzed using the Student t-test in which significance is attained at P<0.05 (*) (**: P<0.005).

[1] = system: Patched protein in MEWO and A375 cells; assay: Western blotting of Patched after panicein treatment; settings: 24 hours, 10 μM
Protocol: Western-blotting on total extracts from MEWO and A375 cells after 24 h treatment with 10 μM of panicein A hydroquinone (P5) or with DMSO.
Total extracts from melanoma cells were prepared. Samples were separated on 8% SDS-PAGE and transferred to nitrocellulose membranes (Amersham) using standard techniques. After 1 hour at room temperature in blocking buffer (20 mmol/L Tris-HCl pH 7.5, 450 mmol/L NaCl, 0.1% Tween-20, and 4% non-fat milk), nitrocellulose membranes were incubated overnight at 4° C. with rabbit anti-Patched antiserum (Ab130.6 1:1000 generous gift from M. Ruat or Ab39266 from Abcam 1/1000) and monoclonal mouse anti-βtubulin antibody (Sigma; 1/1000). After 3 washes, membranes were incubated 45 min with anti-mouse (1:5000) or anti-rabbit (1:3000) immunoglobulin coupled to horseradish peroxidase (Dako). Detection was carried out with an ECL kit (Millipore) on a Las3000 (Fuji).

A375 cells = assay: Doxorubicin efflux from melanoma cells (intracellular dxr fluorescence); settings: A375, loaded with 10 μM dxr, 10 μM compound, 30 min efflux
Protocol: (§1) A. Compound P5 inhibits doxorubicin efflux from melanoma cells MeWo and A375. Cells were grown on cover-slips, incubated for 2 hour at 37° C. with 10 μM doxorubicin and quickly rinsed with phosphate buffer (pH 7.4). One cover-slip of each cell line was immediately fixed for doxorubicin charge control. The other cover-slips were incubated with buffer supplemented with DMSO or 10 μM of compound P5 30 min under gentle shaking and immediately fixed. Dxr intracellular fluorescence was visualized by epifluorescence and analyzed using Image J software on more than 30 cells of 3 different fields for each condition. The results were analyzed using the Student t test in which significance is attained at P<0.05 (**: P<0.005, ***: P<0.0005). […] Dxr intracellular fluorescence quantification was carried out using Image J software on more than 30 yeasts on 3 different fields for each condition. The results were analyzed using the Student t test in which significance is attained at P<0.05 (*).
(§2) On melanoma cells: For doxorubicin incorporation in melanoma cells, the protocol was adapted from Bidet et al. (2012). […] Quantification of doxorubicin intracellular fluorescence was carried out using Image J software on more than 30 cells of 3 different fields for each condition. The results were analyzed using the Student t test in which significance is attained at P<0.05.

MeWo cells = assay: as above; settings: loaded with 10 μM dxr, 10 μM compound, 30 min efflux
Protocol: as §1, §2

A375 melanoma cells = assay: Vemurafenib cytotoxicity, viability test using neutral red; settings: A375, 10 μM panicein A hydroquinone

COc1cc(C)c(CC/C(C)=C/Cc2cc(O)ccc2O)c(C)c1C [P5, Panicein A hydroquinone]
early apoptosis (Annexin V and DAPI labeling) (melanoma cells; 24 h treatment with paniceins and/or dxr): increases early apoptosis | number of apoptotic melanoma cells (melanoma cells; 24 h treatment, AnnexinV and DAPI co-staining): strongly increases | effect on Patched expression or degradation [1]: no effect | increase of dxr in cells (dxr fluorescence intensity) after efflux (A375 cells): about 25% | increase of dxr in cells (dxr fluorescence intensity) after efflux (MeWo cells): about 25% | increase of vemurafenib cytotoxicity (A375 melanoma cells): strongly increases
